The experiment concerns panel of human cancer cell lines (23 pancreatic adenocarcinomas, 18 malignant melanomas, 36 colorectal adenocarcinomas). The experiment in a line: Cell viability assay to determine IC50 for Apo2L/TRAIL in a cancer cell line panel. It counts as cell-based. How it is done: FIG. 10A-D illustrates differential expression of specific O-glycosylation enzymes in Apo2L/TRAIL-sensitive and -resistant cancer cell lines: (A) Cell viability was measured after incubation with varying doses of Apo2L/TRAIL. IC50 for each cell line was computed as the concentration of Apo2L/TRAIL that gives 50% loss of viability. Each cell viability experiment was repeated at least three times in presence of low (0.5%) and high (10%) fetal bovine serum. Black, grey, or open symbols depict cell lines that are highly sensitive, moderately sensitive, or resistant to Apo2L/TRAIL, respectively. (B) ppGalNAcT-14 mRNA expression levels (probe set 219271 at) in pancreatic and malignant melanoma cell lines. Cell lines are arranged by tissue type and sensitivity to Apo2L/TRAIL. Black, grey, or open bars depict cell lines as in A. (C) mRNA expression levels of Fut-6 (top panel, probe set 211885_x_at) and ppGalNAcT-3 (bottom panel, probe set 203397_s_at) in colorectal cancer cell lines. […] Athymic nude mice carrying GalNAcT-3/Fut-6-positive (left panel) or GalNAcT-3/Fut-6-negative (right panel) tumors received vehicle or Apo2L/TRAIL (60 mg/kg/day i.p. on days 0-4) and tumor volume was monitored (mean ±SE, N=10 mice/group). […]

On to “Apo2L/TRAIL: nontagged soluble recombinant human Apo2L/TRAIL, prepared as described in Lawrence et al.”, for which the “cell lines classified as highly or moderately sensitive to Apo2L/TRAIL” value (29/77 cell lines) is on record as 38%. For the setting “mean over the 29 highly or moderately sensitive cell lines”, the “Apo2L/TRAIL concentration required for achieving 50% cell death, mean” value is given as 250 ng/mL.

Values taken from US20080182277A1, “Assays and methods using biomarkers” (Genentech, Inc., priority 2005, published 2008).
